The nature of data set [1]: Biological half-life in aqueous medium (period within which the biological activity drops to the half). To be noted: aqueous medium at pH=7. The data set is classed as physicochemical. As to the method:
The biological half-life (i.e. the period within which the biological activity of the substance drops to the half) is 3 minutes for PGI2 an an aqueous medium at pH=7, and about 7 days for the new compounds according to the invention.

For data set [2] the following is noted: sodium salt: storage, free acid: physiological conditions, hydrolysis into 6-keto-PGF1α, cited from earlier work.
Data set [3] has as its system human PRP. Kind of data set: Inhibition of ADP-induced aggregation in human platelet rich plasma (PRP), method of Born. It is filed as cell-based. To be noted: aggregation provoked by 4 μmol/ml of ADP, read-out: IC50 on human PRP (concentration required to attain 50% inhibiting effect). The source says:
(§1) The main pharmacological effect of the new compounds according to the invention is that, like PGI2, they inhibit blood platelet aggregation and are able to dissolve the already existing agglomerates. The aggregation inhibiting effects of the new compounds were examined on human and guinea pig platelet rich plasma (PRP) according to the method of Born. Aggregation was provoked by adding 4 μmol/ml of ADP to the plasma, and then the prostacycline concentrations required to attain 50% or 100% inhibiting effect (IC50 or IC100) were determined.

The subject of data set [4] is guinea pig PRP. As to the kind of experiment: Inhibition of ADP-induced aggregation in guinea pig platelet rich plasma (PRP), method of Born. To be noted: Cavia porcellus, aggregation provoked by 4 μmol/ml of ADP, read-out: IC100 on guinea pig PRP (concentration required to attain 100% inhibiting effect). It is filed as cell-based.
Source text: as §1

Where a name gives a salt, the structure may show the parent alone. Read-outs that look alike come from different tables or passages of the source.

By half-life is commonly meant the time needed for the level to fall by half in the phase considered. As to `CCCCC[C@H](O)/C=C/[C@@H]1[C@H]2C/C(=C/CCCC(=O)O)O[C@H]2C[C@H]1O` [PGI2], the half-life in data set [1] turned out to be 3 min. The “stability of prostacycline sodium salt / free acid” value in data set [2] (listed as free PGI2 acid) is listed as “rapidly hydrolyzes into 6-keto-PGF1α”.

In the case of `CCCCCC[C@H](O)/C=C/[C@@H]1[C@H]2C/C(=C/c3cccc(C(=O)O)c3)O[C@H]2C[C@H]1O` [5(Z)-2,3,4-Trinor-1,5-inter-m-phenylene-20-methyl-PGI2 sodium salt], the IC50 in data set [3] amounted to 12.5 ng/mL. Moreover, the IC100 in data set [4] was found to be 0.014 µg/mL.

For `CCCCC[C@H](O)/C=C/[C@@H]1[C@H]2C/C(=C/CCCC(=O)O)O[C@H]2C[C@H]1O` [PGI2 sodium salt], the IC50 in data set [3] came out at 2 ng/mL. For the same molecule, in data set [4], the IC100 is 0.00175 µg/mL. Moreover, the “stability of prostacycline sodium salt / free acid” value in data set [2] (listed as sodium salt of prostacycline) is “very stable, highly storable compound”.

Values taken from patent US4451483A, “2,3,4-Trinor-m-inter-phenylene-prostaglandin derivatives and compositions and method for inhibiting blood platelet aggregation” (Chinoin Gyogyszer es Vegyeszeti Termekek Gyara Rt., priority 1981, dated 1984).
